According to patent US20080161278A1, “2-Azetidinyl-4-(1H-Pyrazol-3-Ylamino) Pyrimidines as Inhibitors of Insulin-Like Growth Factor-1 Receptor Activity” (ASTRAZENECA AB, priority 2005, published 2008):

Tested on: murine fibroblasts (NIH3T3) over-expressing human IGF-1 receptor
Assay: Test (c): inhibition of IGF-stimulated cell proliferation (BrdU incorporation)
Assay type: cell-based
Conditions: Mus musculus
Method: c) Inhibition of IGF-Stimulated Cell Proliferation
The construction of murine fibroblasts (NIH3T3) over-expressing human IGF-1 receptor has been described by Lammers et al (EMBO J, 8, 1369-1375, 1989). These cells show a proliferative response to IGF-I which can be measured by BrdU incorporation into newly synthesised DNA. Compound potency was determined as causing inhibition of the IGF-stimulated proliferation in the following assay:
Compounds are initially dissolved in DMSO to 10 mM, followed by dilutions in DMEM+1% FCS+glutamine to give a range from […] in 1-0.00045% DMSO final concentration in assay well.
Exponentially growing NIH3T3/IGFR cells were harvested and seeded in complete growth medium into a flat-bottomed 96 well tissue culture grade plate (Costar 3525) at 1.2×10^4 cells per well in a volume of 100 μl.
Growth medium was carefully removed from each well using a multi-channel pipette. Wells were carefully rinsed three times with 200 μl with HBSS. 100 μl of starvation medium was added to each well and the plate was re-incubated for 24 hours.
50 μl of a 4× concentrate of test compound was added to appropriate wells. Cells were incubated for 30 minutes with compound alone before the addition of IGF. […]
The incorporation of BrdU in the cells (after a 4 h incorporation period) was assessed using the BrdU Cell Proliferation Elisa according to the manufacturer's protocol.

`Cc1cc(Nc2cc(C)[nH]n2)nc(N2CCC2c2cc(-c3ccccn3)no2)n1` (centres unmarked) [Example 4, 6-Methyl-2-{2-[3-(pyrid-2-yl)isoxazol-5-yl]azetidin-1-yl}-4-(5-methyl-1H-pyrazol-3-ylamino)pyrimidine] showed an IC50 of 0.06 µM.
Work on `Cc1cc(Nc2cc(N3CCOCC3)nc(N3CCC3c3cc(-c4ccccn4)no3)n2)n[nH]1` (centres unmarked) [Example 2, 6-Morpholino-2-{2-[3-(pyrid-2-yl)isoxazol-5-yl]azetidin-1-yl}-4-(5-methyl-1H-pyrazol-3-ylamino)pyrimidine] yielded an IC50 of 0.04 µM.
